Test results from publication PMC2837340 (ACS Chemical Neuroscience, 2009).

Key:
[1] = target: horse spleen apoferritin (HSAF) (Equus caballus, UniProt P02791); experiment: isothermal titration calorimetry; assay type: binding
[2] = target: T1, Shaw2 K+ channel (Shaw2 F335A) (Drosophila melanogaster, UniProt P17972, F335A); experiment: two-electrode voltage clamp, Xenopus oocytes; assay type: cell-based; settings: read-out: % inhibition at 2 mM
T1 sequence (P17972 1-498 F335A): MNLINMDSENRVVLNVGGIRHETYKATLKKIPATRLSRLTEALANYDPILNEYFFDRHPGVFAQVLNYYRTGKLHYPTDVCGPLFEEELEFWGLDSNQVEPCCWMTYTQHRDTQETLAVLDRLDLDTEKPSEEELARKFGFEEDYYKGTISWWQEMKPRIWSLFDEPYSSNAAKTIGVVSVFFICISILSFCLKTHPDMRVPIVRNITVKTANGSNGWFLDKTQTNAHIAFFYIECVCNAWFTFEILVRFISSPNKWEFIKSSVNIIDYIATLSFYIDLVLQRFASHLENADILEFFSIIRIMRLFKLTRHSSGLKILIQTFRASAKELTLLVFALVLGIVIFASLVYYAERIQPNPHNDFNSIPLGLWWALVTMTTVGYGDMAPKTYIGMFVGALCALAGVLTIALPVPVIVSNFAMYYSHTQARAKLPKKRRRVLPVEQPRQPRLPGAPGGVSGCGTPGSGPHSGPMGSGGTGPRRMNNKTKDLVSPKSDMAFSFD

Chain of horse spleen apoferritin (HSAF) (P02791 2-175): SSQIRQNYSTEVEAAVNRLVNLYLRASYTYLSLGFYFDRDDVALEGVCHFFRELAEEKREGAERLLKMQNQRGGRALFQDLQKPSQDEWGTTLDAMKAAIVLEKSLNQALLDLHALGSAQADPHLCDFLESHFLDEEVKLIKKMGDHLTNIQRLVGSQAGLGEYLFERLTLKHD
Chain of horse spleen apoferritin (HSAF) (Q8MIP0 2-182 partner): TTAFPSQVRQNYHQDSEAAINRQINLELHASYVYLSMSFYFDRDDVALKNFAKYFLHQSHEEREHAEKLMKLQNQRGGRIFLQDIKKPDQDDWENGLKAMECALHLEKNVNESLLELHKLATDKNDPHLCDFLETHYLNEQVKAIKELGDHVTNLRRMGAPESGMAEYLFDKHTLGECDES

Compound	Kd [1]	inhibition at 2000 µM [2]
FC(F)(F)C(Cl)OC(F)(F)C1N=N1 (racemic) [compound 1, azi-isoflurane]	6 ± 1 µM	77 ± 0.2%
FC(F)OC(Cl)C(F)(F)F (stereo not shown) [isoflurane]	58 ± 2 µM	67%
